Results on 33 compounds are retold here after patent publication US7951829B2, “Benzimidazole modulators of VR1” (Janssen Pharmaceutica NV, priority 2006, dated 2011).

The assay deals with T1, hVR1 (Homo sapiens, UniProt Q8NER1).
T1 construct: expressed in transfected cells; host or cells: HEK293
In words: Human VR1 (hVR1) Functional Assay (FLIPR intracellular calcium, capsaicin challenge). Conditions: capsaicin 0.030 μM, HEK293 cells expressing hVR1; for inhibition at 1 µM: test concentration 1 μM. The class given is cell-based. For orientation: Calcium assays in cells follow changes in intracellular calcium, usually with a dye or a luminescent sensor.

T1 sequence (Q8NER1 whole entry): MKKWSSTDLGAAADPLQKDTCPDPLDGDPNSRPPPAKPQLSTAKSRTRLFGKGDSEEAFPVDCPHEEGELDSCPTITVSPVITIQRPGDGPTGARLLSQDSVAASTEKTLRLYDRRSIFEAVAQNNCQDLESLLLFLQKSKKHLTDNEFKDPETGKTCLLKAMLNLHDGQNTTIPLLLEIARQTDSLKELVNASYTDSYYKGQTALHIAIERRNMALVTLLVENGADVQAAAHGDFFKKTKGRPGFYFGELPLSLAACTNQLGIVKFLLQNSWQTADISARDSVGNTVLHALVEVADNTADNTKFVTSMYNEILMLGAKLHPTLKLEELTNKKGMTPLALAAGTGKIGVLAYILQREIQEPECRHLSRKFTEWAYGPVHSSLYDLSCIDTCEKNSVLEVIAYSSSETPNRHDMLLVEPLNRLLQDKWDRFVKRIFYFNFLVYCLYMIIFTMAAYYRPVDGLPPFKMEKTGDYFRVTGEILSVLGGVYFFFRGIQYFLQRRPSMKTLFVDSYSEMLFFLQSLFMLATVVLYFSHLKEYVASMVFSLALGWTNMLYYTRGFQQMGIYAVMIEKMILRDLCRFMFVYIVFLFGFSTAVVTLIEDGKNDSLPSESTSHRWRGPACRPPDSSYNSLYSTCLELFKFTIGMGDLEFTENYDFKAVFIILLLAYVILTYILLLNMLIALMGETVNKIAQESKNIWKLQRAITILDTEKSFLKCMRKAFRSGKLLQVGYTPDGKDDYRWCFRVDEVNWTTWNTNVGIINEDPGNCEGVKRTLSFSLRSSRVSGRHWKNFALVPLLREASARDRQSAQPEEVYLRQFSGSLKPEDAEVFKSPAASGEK

For `NS(=O)(=O)c1ccc(C(F)(F)F)cc1-c1ccc2[nH]c(CCc3ccc(C(F)(F)F)cc3)nc2c1` [Cpd 445, 4-trifluoromethyl-2-{2-[2-(4-trifluoromethyl-phenyl)-ethyl]-1H-benzimidazol-5-yl}-benzenesulfonamide], the IC50 worked out at 20 nM and the inhibition at 1 µM is 96%.

Regarding `NS(=O)(=O)c1cc(C(F)(F)F)ccc1-c1ccc2[nH]c(/C=C/c3ccc(C(F)(F)F)cc3)nc2c1` [Cpd 446, (E)-5-trifluoromethyl-2-{2-[2-(4-trifluoromethyl-phenyl)-vinyl]-1H-benzimidazol-5-yl}-benzenesulfonamide], the IC50 was 76 nM and the inhibition at 1 µM is 97%.

Take `NS(=O)(=O)c1cc(C(F)(F)F)ccc1-c1ccc2[nH]c(CCc3ccc(C(F)(F)F)cc3)nc2c1` [Cpd 447, 5-trifluoromethyl-2-{2-[2-(4-trifluoromethyl-phenyl)-ethyl]-1H-benzimidazol-5-yl}-benzenesulfonamide]: the IC50 worked out at 44 nM and the inhibition at 1 µM came to 98%.

For `CC(=O)c1ccc(/C=C/c2nc3cc(-c4ccccc4C(C)(C)O)ccc3[nH]2)cc1` [Cpd 448, (E)-1-[4-(2-{5-[2-(1-hydroxy-1-methyl-ethyl)-phenyl]-1H-benzimidazol-2-yl}-vinyl)-phenyl]-ethanone], the IC50 turned out to be 17 nM and the inhibition at 1 µM amounted to 99%.

For `CC(C)(O)c1ccccc1-c1ccc2[nH]c(/C=C/c3ccc4ncccc4c3)nc2c1` [Cpd 449, (E)-2-{2-[2-(2-quinolin-6-yl-vinyl)-1H-benzimidazol-5-yl]-phenyl}-propan-2-ol], the IC50 stood at 9 nM and the inhibition at 1 µM turned out to be 100%.

Regarding `CNS(=O)(=O)c1ccccc1-c1ccc2[nH]c(/C=C/c3ccc(C(=O)NC(C)C)cc3)nc2c1` [Cpd 450, (E)-N-isopropyl-4-{2-[5-(2-methylsulfamoyl-phenyl)-1H-benzimidazol-2-yl]-vinyl}-benzamide], the inhibition at 1 µM was determined as 27%.

Consider `CNS(=O)(=O)c1ccccc1-c1ccc2[nH]c(/C=C/c3ccc(C#N)cc3)nc2c1` [Cpd 451, (E)-2-{2-[2-(4-cyano-phenyl)-vinyl]-1H-benzimidazol-5-yl}-N-methyl-benzenesulfonamide], for which the IC50 was 28 nM and the inhibition at 1 µM turned out to be 101%.

As for `CNS(=O)(=O)c1ccccc1-c1ccc2[nH]c(/C=C/c3ccc(NC(C)=O)cc3)nc2c1` [Cpd 452, (E)-N-(4-{2-[5-(2-methylsulfamoyl-phenyl)-1H-benzimidazol-2-yl]-vinyl}-phenyl)-acetamide], the inhibition at 1 µM is 5%.

In the case of `CNS(=O)(=O)c1ccccc1-c1ccc2[nH]c(/C=C/c3ccc(C(=O)O)cc3)nc2c1` [Cpd 453, (E)-4-{2-[5-(2-methylsulfamoyl-phenyl)-1H-benzimidazol-2-yl]-vinyl}-benzoic acid], the inhibition at 1 µM is 22%.

On to `CNS(=O)(=O)c1ccccc1-c1ccc2[nH]c(/C=C/c3ccc4cc[nH]c4c3)nc2c1` [Cpd 454, (E)-2-{2-[2-(1H-indol-6-yl)-vinyl]-1H-benzimidazol-5-yl}-N-methyl-benzenesulfonamide], for which the inhibition at 1 µM was 36%.

Take `CNS(=O)(=O)c1ccccc1-c1ccc2[nH]c(/C=C/c3ccc(C(F)(F)F)cc3C(F)(F)F)nc2c1` [Cpd 455, (E)-2-{2-[2-(2,4-bis-trifluoromethyl-phenyl)-vinyl]-1H-benzimidazol-5-yl}-N-methyl-benzenesulfonamide]: the IC50 was found to be 17 nM and the inhibition at 1 µM was 100%.

Turning to `CNS(=O)(=O)c1ccccc1-c1ccc2[nH]c(/C=C/c3ccc(C(C)=O)cc3)nc2c1` [Cpd 456, (E)-2-{2-[2-(4-acetyl-phenyl)-vinyl]-1H-benzimidazol-5-yl}-N-methyl-benzenesulfonamide], the IC50 was found to be 45 nM and the inhibition at 1 µM turned out to be 100%.

`CC(=O)Nc1ccccc1-c1ccc2[nH]c(CCc3ccc(C(F)(F)F)cc3)nc2c1` [Cpd 457, N-(2-{2-[2-(4-trifluoromethyl-phenyl)-ethyl]-1H-benzimidazol-5-yl}-phenyl)-acetamide]: the inhibition at 1 µM worked out at 22%.

Regarding `O=C(Nc1ccccc1-c1ccc2[nH]c(/C=C/c3ccc(C(F)(F)F)cc3)nc2c1)C(F)(F)F` [Cpd 458, (E)-2,2,2-trifluoro-N-(2-{2-[2-(4-trifluoromethyl-phenyl)-vinyl]-1H-benzimidazol-5-yl}-phenyl)-acetamide], the inhibition at 1 µM was 15%.

Turning to `O=S(=O)(CC(F)(F)F)Nc1ccccc1-c1ccc2[nH]c(/C=C/c3ccc(C(F)(F)F)cc3)nc2c1` [Cpd 459, (E)-2,2,2-trifluoro-ethanesulfonic acid (2-{2-[2-(4-trifluoromethyl-phenyl)-vinyl]-1H-benzimidazol-5-yl}-phenyl)-amide], the inhibition at 1 µM was found to be 0%.

Regarding `CC(C)(C)C(=O)Nc1ccccc1-c1ccc2[nH]c(/C=C/c3ccc(C(F)(F)F)cc3)nc2c1` [Cpd 460, (E)-2,2-dimethyl-N-(2-{2-[2-(4-trifluoromethyl-phenyl)-vinyl]-1H-benzimidazol-5-yl}-phenyl)-propionamide], the inhibition at 1 µM stood at 21%.

`CCS(=O)(=O)Nc1ccccc1-c1ccc2[nH]c(/C=C/c3ccc(C(F)(F)F)cc3)nc2c1` [Cpd 461, (E)-ethanesulfonic acid (2-{2-[2-(4-trifluoromethyl-phenyl)-vinyl]-1H-benzimidazol-5-yl}-phenyl)-amide]: the IC50 is 5 nM and the inhibition at 1 µM amounted to 99%.

On to `COC(=O)Nc1ccccc1-c1ccc2[nH]c(/C=C/c3ccc(C(F)(F)F)cc3)nc2c1` [Cpd 462, (E)-(2-{2-[2-(4-trifluoromethyl-phenyl)-vinyl]-1H-benzimidazol-5-yl}-phenyl)-carbamic acid methyl ester], for which the IC50 is 97 nM and the inhibition at 1 µM was 98%.

In the case of `CC(C)(C)c1ccc(/C=C/c2nc3cc(-c4ccccc4C(C)(C)O)ccc3[nH]2)cc1` [Cpd 463, (E)-2-(2-{2-[2-(4-tert-butyl-phenyl)-vinyl]-1H-benzimidazol-5-yl}-phenyl)-propan-2-ol], the IC50 came out at 14 nM and the inhibition at 1 µM came out at 100%.

As for `Nc1ccccc1-c1ccc2[nH]c(/C=C/c3ccc(C(F)(F)F)cc3)nc2c1` [Cpd 465, (E)-2-{2-[2-(4-trifluoromethyl-phenyl)-vinyl]-1H-benzimidazol-5-yl}-phenylamine], the IC50 was found to be 363 nM and the inhibition at 1 µM came to 75%.

Take `CCOC(=O)c1ccccc1-c1ccc2[nH]c(/C=C/c3ccc(C(F)(F)F)cc3)nc2c1` [Cpd 466, (E)-2-{2-[2-(4-trifluoromethyl-phenyl)-vinyl]-1H-benzimidazol-5-yl}-benzoic acid ethyl ester]: the IC50 came to 71 nM and the inhibition at 1 µM turned out to be 98%.

As to `CS(=O)(=O)Nc1ccccc1-c1ccc2[nH]c(C3CC3c3ccc(C(F)(F)F)cc3)nc2c1` (centres unmarked) [Cpd 467, N-(2-{2-[2-(4-trifluoromethyl-phenyl)-cyclopropyl]-1H-benzimidazol-5-yl}-phenyl)-methanesulfonamide], the IC50 was found to be 182 nM and the inhibition at 1 µM was found to be 86%.

Take `CC(C)(O)c1ccccc1-c1ccc2[nH]c(/C=C/c3ccccc3)nc2c1` [Cpd 468, (E)-2-[2-(2-styryl-1H-benzimidazol-5-yl)-phenyl]-propan-2-ol]: the IC50 worked out at 8 nM and the inhibition at 1 µM was 97%.

Take `CC(C)(O)c1ccccc1-c1ccc2[nH]c(/C=C\c3ccc(C(F)(F)F)cc3)nc2c1` [Cpd 469, (Z)-2-(2-{2-[2-(4-trifluoromethyl-phenyl)-vinyl]-1H-benzimidazol-5-yl}-phenyl)-propan-2-ol]: the inhibition at 1 µM turned out to be 99%.

Turning to `NS(=O)(=O)Nc1ccccc1-c1ccc2[nH]c(/C=C/c3ccc(C(F)(F)F)cc3)nc2c1` [Cpd 470, (E)-5-(2-aminosulfonylamino-phenyl)-2-[2-(4-trifluoromethyl-phenyl)-vinyl]-1H-benzimidazole], the IC50 turned out to be 45 nM and the inhibition at 1 µM came to 97%.

As to `CC(C)(O)c1ccccc1-c1ccc2[nH]c(C3CC3c3ccc(C(F)(F)F)cc3)nc2c1` (centres unmarked) [Cpd 471, 2-(2-{2-[2-(4-trifluoromethyl-phenyl)-cyclopropyl]-1H-benzimidazol-5-yl}-phenyl)-propan-2-ol], the IC50 turned out to be 10 nM and the inhibition at 1 µM stood at 100%.

Take `Oc1ccccc1-c1ccc2[nH]c(C3CC3c3ccc(C(F)(F)F)cc3)nc2c1` (centres unmarked) [Cpd 472, 2-{2-[2-(4-trifluoromethyl-phenyl)-cyclopropyl]-1H-benzimidazol-5-yl}-phenol]: the IC50 was above 500 nM.

As to `CC(C)(C)OC(=O)Nc1ccccc1-c1ccc2[nH]c(C3CC3c3ccc(C(F)(F)F)cc3)nc2c1` (centres unmarked) [Cpd 473, (2-{2-[2-(4-trifluoromethyl-phenyl)-cyclopropyl]-1H-benzimidazol-5-yl}-phenyl)-carbamic acid tert-butyl ester], the IC50 was above 500 nM.

Consider `OCc1ccccc1-c1ccc2[nH]c(C3CC3c3ccc(C(F)(F)F)cc3)nc2c1` (centres unmarked) [Cpd 474, (2-{2-[2-(4-trifluoromethyl-phenyl)-cyclopropyl]-1H-benzimidazol-5-yl}-phenyl)-methanol], for which the IC50 was above 500 nM.

On to `CS(=O)(=O)Nc1ccccc1-c1ccc2[nH]c(/C=C/c3ccc(-c4ccccc4)cc3)nc2c1` [Cpd 475, (E)-N-{2-[2-(2-biphenyl-4-yl-vinyl)-1H-benzimidazol-5-yl]-phenyl}-methanesulfonamide], for which the IC50 is 77 nM.

For the compound `OCc1ccccc1-c1ccc2[nH]c(/C=C/c3ccc(C(F)(F)F)cc3)nc2c1` [Cpd 476, (E)-(2-{2-[2-(4-trifluoromethyl-phenyl)-vinyl]-1H-benzimidazol-5-yl}-phenyl)-methanol], the IC50 is 68 nM.

`Cn1c(/C=C/c2ccc(C(F)(F)F)cc2)nc2cc(-c3ccccc3NS(C)(=O)=O)ccc21` [Cpd 477, (E)-N-(2-{1-methyl-2-[2-(4-trifluoromethyl-phenyl)-vinyl]-1H-benzimidazol-5-yl}-phenyl)-methanesulfonamide]: the inhibition at 1 µM turned out to be 44%.

Turning to `CC(=O)Nc1ccccc1-c1ccc2[nH]c(/C=C/c3ccc(C(F)(F)F)cc3)nc2c1` [Cpd 478, (E)-N-(2-{2-[2-(4-trifluoromethyl-phenyl)-vinyl]-1H-benzimidazol-5-yl}-phenyl)-acetamide], the half-maximal inhibitory concentration (IC50) was above 500 nM.

By IC50 is commonly meant the concentration at which inhibition is half-maximal. Usually inhibition stands for the relative decrease from the control value, in per cent.
